US11179358B2, “Compound for use in the prevention and treatment of neurodegenerative diseases” (Universität Wien, priority 2015, dated 2021)
“Also recorded” adds a separate entry of the source.

Experiments:
[1] = system: RA/PMA differentiated SH-SY5Y cells; experiment: Sulfocalixarene protection against MPP+ and H2O2 cytotoxicity; type: cell-based, human; conditions: Sulfocalixarene 500 μM and 100 μM
Experimental: (§1) FIG. 11: Sulfocalixarene protection against Lcn2/NGAL cytotoxicity. A. SH-SY5Y RA/PMA differentiated cells were treated for 24 and 48 hours with two lethal concentrations of Lcn2/NGAL (100 μg/ml and 200 μg/ml). Cells were challenged with increasing concentration of Sulfocalixarene and assessed for MTT and phase contrast microscopy analyses. B. SH-SY5Y RA/PMA differentiated cells were treated for 24 and 48 hours with two lethal concentrations of MPP+ (0.5 mM and 10 mM). Cells were challenged with increasing concentration of Sulfocalixarene and assessed for MTT and phase contrast microscopy analyses.
FIG. 12: Sulfocalixarene protection against MPP+ and H2O2 cytotoxicity. Representative phase-contrast microscope images of RA/PMA differentiated SH-SY5Y cells, scale bar 100 μm.
Furthermore, it was shown that Sulfocalixarene protected against MPP+ (a substrate for the dopamine transporter that is taken up selectively into dopaminergic neurons where it inhibits Complex I of the mitochondrial electron transport chain) and H2O2 stress in human differentiated SH-SY5Y cells. Oxidative stress and mitochondrial damage have been implicated in the pathogenesis of several neurodegenerative diseases.

Lcn2 = Lcn2 (Homo sapiens, UniProt P80188); experiment: Isothermal titration calorimetry of Sulfocalixarene binding to Lcn2; conditions: ITC, 25° C., 20 mM Tris pH 7.4, 50 mM NaCl, single binding site
Sequence of Lcn2 (P80188 21-198): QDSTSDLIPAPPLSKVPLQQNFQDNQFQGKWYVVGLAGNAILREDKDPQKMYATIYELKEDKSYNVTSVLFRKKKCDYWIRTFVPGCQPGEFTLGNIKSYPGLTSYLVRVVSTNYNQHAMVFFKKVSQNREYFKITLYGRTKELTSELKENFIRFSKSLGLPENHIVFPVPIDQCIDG
Experimental: Isothermal Titration Calorimetry (ITC)—Binding of free and bound Sulfocalixarene to Lcn2 was determined by ITC using a Microcal ITC200 microcalorimeter. Experiments were carried out at 25° C. in 20 mM Tris pH 7.4, 50 mM NaCl. The reference cell contained Milli Q water. The concentration of Lcn2 in the reaction cell was 50 μM. The concentration of Sulfocalixarene in the syringe was 500 μM. The titration consisted in 19 successive injections of 4 μL, with a stirring speed of 800 rpm, separated by intervals of 300 s. Data analysis was done with the Origin software assuming a single binding site.
FIG. 7 illustrates a biophysical characterization of the Sulfocalixarene binding to soluble Lcn2. (top). Overlay of ^1H-^15N HSQC spectra for Lcn2 without (red) and with Sulfocalixarene (blue). Changes of cross peak frequencies (positions) indicate residues which are affected upon binding. (bottom) Isothermal titration calorimetry traces of Sulfocalixarene binding to Lcn2. Sulfocalixarene binds to Lcn2 with a KD of about 700 nM.

[2] = system: RA/PMA differentiated SH-SY5Y cells; experiment: Sulfocalixarene protection against Lcn2/NGAL cytotoxicity; type: cell-based; conditions: human differentiated SH-SY5Y neuroblastoma cells
Experimental: as §1
To further study the effect of the compound in neuronal cellular cultures, a cytotoxicity assay was developed using the human Neuroblastoma SH-SY5Y cell line as an in vitro model for dopaminergic neurons. First, it was shown that RA-PMA terminally differentiated SH-SY5Y cells are sensitive to Lcn2/NGAL cytotoxicity in a dose dependent manner. Moreover, in the presence of reactive oxygen species (ROS) triggered by H2O2 the Lcn2/NGAL cytotoxicity is stronger. Second, it could be shown that SH-SY5Y terminally differentiated cells express ˜5× more the Lcn2/NGAL cognate receptor (SLC22A17) on the plasma membrane.

[3] = system: transgenic animal models for Parkinson Disease (PD); experiment: Immunostaining of cortex in transgenic animal models for Parkinson Disease and healthy controls; type: in vivo, mice
Excerpt: FIG. 3: Quantification of the neuronal-immunostaining experiments. Total area, average size and % area are different computational strategies to quantify the number of neurons (however, leading to the same results).
FIG. 4: Immunostaining of astrocytes in healthy (control) and transgenic animals (PD). […] The numbers given for the transgenic animal models are average numbers (and standard deviation) of astrocytes obtained for different animals and cortex regions.
FIG. 6: Quantification of α-synuclein aggregates.

[4] = system: transgenic (tg) animals Line 61; experiment: Pasta Gnawing Test; type: in vivo, mice
Experimental: FIG. 13: Pasta Gnawing. The Pasta Gnawing Test is a stress-free behavioral experiment for evaluation of motor deficits in rodents. During the test, the gnawing noises of the animals while eating a piece of dry pasta are recorded. Parameters such as biting speed and number of bites/chewing episode are evaluated.
Data are shown as mean±SEM. Statistics 1-Way-Anova. Statistically significant group differences are indicated with asterisks (for One Way Anova) and hashtag (for t-test); *p<0.05; **p<0.01; #p<0.05.

α-synuclein = α-synuclein (Homo sapiens, UniProt P37840); experiment: NMR probing of interaction between α-synuclein and Sulfocalixarene, with and without POPG liposomes; type: binding
Experimental: POPG was ordered from Avantis Polar Lipids as a stock of 5 mg/ml dissolved in chloroform. The stock solution was aliquotted in glass vials, most chloroform was evaporated under nitrogen flow and the sample was then dried under vacuum for a minimum of 45 min. POPG was dissolved in the desired buffer to 1 mg/ml, kept at RT for 1 hr and subjected to 3 freeze-thaw cycles for complete solvation. The suspension was sonicated in a bath sonicator for 5 min and cycled through an extruder (Avanti® mini-Extruder) equipped with a 0.4 μm membrane for 20 times.
To allow for high concentration measurements, the resulting solution was centrifuged at 200,000×g for 10 min, 75% of the supernatant were discarded and the pellet was resuspended in the remaining 25% yielding a solution of 4 mg/ml POPG. This solution was frozen in aliquots before being used in further measurements. […]
For all NMR-measurements the protein was dialyzed into 20 mM phosphate, pH=7.4, 100 mM NaCl. […] NMR-Spectra were recorded on Varian Direct Drive 600 MHz and Varian Inova 800 MHz spectrometers with 10% D2O as lock solvent. […] Resonance assignment at near physiological conditions was readily available from a previous publication (J. N. Rao, Y. E. Kim, L. S. Park, T. S. Ulmer, Effect of pseudorepeat rearrangement on alpha-synuclein misfolding, vesicle binding, and micelle binding. J Mol Biol 390, 516-529 (2009)) (BMRB ID 16300). […]

In the case of O=S(=O)(O)c1cc2c(O)c(c1)Cc1cc(S(=O)(=O)O)cc(c1O)Cc1cc(S(=O)(=O)O)cc(c1O)Cc1cc(S(=O)(=O)O)cc(c1O)C2 [Sulfocalixarene, 4-sulfocalix[4]arene], the “cell viability reduction induced by H2O2” value [1] is reported as “attenuates the reduction of cell viability”, the “cell viability reduction induced by MPP+” value [1] is reported as “attenuates the reduction of cell viability” and the Kd (Lcn2) is reported as ~700 nM. For the same compound, the “neuroprotection against Lcn2/NGAL cytotoxicity” value [2] was “has neuroprotection properties against the cytotoxic protein Lcn2/NGAL”, the number of astrocytes ([3]; healthy control animals) was “unaffected” and the “number of neurons in the cortex” value ([3]; transgenic animal models for PD) was “increase of the number of neurons in the cortex”. For the same compound, the “pathological α-synuclein aggregates” value ([3]; transgenic animals (PD)) was “reduction of pathological α-synuclein aggregates; also recorded: significant reduction of α-synuclein aggregates”, the number of astrocytes ([3]; transgenic animals (PD), cortex) was “increase of the number of (presumably neurotrophic quiescent) astrocytes” and the bites per episode ([4]; day 28, tg Line 61, versus tg animals treated with vehicle) was “significant more bites per episode”. The biting speed ([4]; tg Line 61, versus tg animals treated with vehicle) was “more biting speed”, the “location of binding site on α-synuclein (NMR chemical shift changes)” value (α-synuclein; monomeric (soluble) α-Synuclein) was “N-terminal domain of α-synuclein; also recorded: N-terminal part of α-Synuclein; also recorded: N-terminal domain (1-40)” and the “release of α-syn from POPG liposomes (NMR signal intensity ratio)” value (α-synuclein; α-syn (120 µM) with POPG-liposomes (0.8 mg/ml)) was “partly releases α-syn from the liposomes”.
